Legend:
[1] = test system: patients with sporadic (non-hereditary) colorectal neoplasia (adenomas); experiment: Randomized, double-blind, placebo-controlled study of aspirin on occurrence of large bowel adenomas; format: in vivo, human
Description: Patients were recruited at nine centers in North America.
By protocol, subjects were to have a complete surveillance colonoscopy 34-40 months after the qualifying examination. At each colonoscopy, the endoscopist recorded the estimated size and location of all polyps and mucosal lesions suspicious for neoplasia as per usual clinical practice. Each lesion was removed and examined histologically at the clinical center and by the study pathologist. Polyps were classified as neoplastic (adenomatous) or non-neoplastic (e.g., hyperplastic) by the study pathologist.
The primary study outcome was the proportion of subjects with one or more colorectal adenomas detected during the period from one year after randomization through the anticipated surveillance follow-up. If a surveillance colonoscopy was not performed during the protocol time window, the last examination at least one year after randomization was taken as the follow-up exam. Pre-specified secondary outcomes were the numbers of large-bowel adenomas and “advanced lesions”: tubulovillous adenomas (25 to 75 percent villous features), villous adenomas (>75 percent villous), large adenomas ([…]), severe dysplasia, or invasive cancer. Separate analyses were also conducted for lesions in the left colorectum (descending colon, sigmoid colon, and rectum) and right colorectum (the remainder of the bowel).

[2] = Serious medical events in the randomized placebo-controlled aspirin study; conditions: for Serious Bleeding, Gastrointestinal / Serious Bleeding, Genitourinary: bleeding leading to hospitalization or surgical intervention
Description: A multi-center, randomized, double-blind, placebo-controlled study was performed that examined the effects of aspirin alone as well as folate treatment combined with aspirin on the occurrence of large bowel adenomas. The study has a 3-by-2 factorial design, investigating aspirin (placebo, 81 mg/day, or 325 mg/day) and folic acid (placebo or 1 mg/day). Patients were recruited at nine centers in North America. Eligible subjects had at least one of the following: (1) one or more histologically confirmed large-bowel adenomas removed within 3 months prior to recruitment, (2) one or more histologically confirmed large-bowel adenomas removed within 16 months before recruitment and a lifetime history of 2 or more confirmed large-bowel adenomas, or (3) a histologically confirmed large-bowel adenoma at least 1 cm in diameter removed within 16 months before recruitment. […] Eligible subjects were between 21 and 80 years old, in good health, and with anticipated colonoscopic follow-up three years after the qualifying examination. Exclusion criteria included a history of a familial colorectal cancer syndrome, invasive large-bowel cancer, malabsorption syndromes, any condition potentially worsened by supplemental aspirin or folic acid, or any condition commonly treated with aspirin, non-steroidal anti-inflammatory drugs (NSAIDs), or folate (e.g., recurrent arthritis, atherosclerotic vascular disease, folic acid deficiency).
Study coordinators at each center maintained contact with the subjects on a regular basis; interval questionnaires regarding possible side effects and medical events were completed every four months by each subject.
Subjects were regularly counseled regarding avoidance of aspirin and other NSAIDs. Lists of products containing aspirin, ibuprofen, or naproxen were provided, and acetaminophen was distributed for treatment of minor febrile illnesses and pain. Every four months, subjects received questionnaires regarding adherence to study treatment; use of medications, over-the-counter drugs and nutritional supplements; and occurrence of symptoms, illnesses, and hospitalizations.
The statistical analysis compared the aspirin treatment groups irrespective of folic acid treatment. Subjects who underwent a follow-up endoscopy at least one year following randomization were included in the analyses. The predefined primary statistical analysis was a 2 degree-of-freedom chi-squared test for a contingency table comparing treatment groups regarding risk of one or more new adenomas. Crude risk ratios and 95 percent confidence intervals were used to compare treatment groups to placebo. Adjusted risk ratios were obtained from log-linear models with age, gender, clinical center, number of lifetime adenomas, and duration of follow-up as covariates. […] Possible modification of treatment effects by baseline characteristics was assessed using interaction terms in the log-linear model. Counts of other clinical endpoints were compared using Fisher's exact test. To compare the effect of aspirin on different types of polyps, a logistic regression model was used with generalized estimating equations (Liang and Zeger Biometrika 1986:13-22) to account for the clustering of multiple endpoints within patients. […] Two-sided P-values <0.05 were considered statistically significant.

CC(=O)Oc1ccccc1C(=O)O [aspirin, acetylsalicylic acid]
Relative Crude Risk (95% CI) ([1]; Any adenoma, both aspirin groups combined versus placebo): 0.88 (0.77-1.02)
incidence of adenomas ([1]; patients randomized to the aspirin groups): significantly lower
Coronary Revascularization ([2]; 81 mg aspirin (N = 377)): 3 no of subjects
Deaths ([2]; 81 mg aspirin (N = 377)): 3 no of subjects
Died (percent) ([2]; 81 mg aspirin (N = 377)): 0.8%
Hospitalization ([2]; 81 mg aspirin (N = 377)): 61 no of subjects
Myocardial Infarction ([2]; 81 mg aspirin (N = 377)): 2 no of subjects
Non-Colorectal Cancer ([2]; 81 mg aspirin (N = 377)): 14 no of subjects
Stroke ([2]; 81 mg aspirin (N = 377)): 2 no of subjects
Serious Bleeding, Gastrointestinal ([2]; 81 mg aspirin (N = 377)): 2 no of subjects
Serious Bleeding, Genitourinary ([2]; 81 mg aspirin (N = 377)): 6 no of subjects
Coronary Revascularization ([2]; 325 mg aspirin (N = 372)): 5 no of subjects
Deaths ([2]; 325 mg aspirin (N = 372)): 4 no of subjects
Died (percent) ([2]; 325 mg aspirin (N = 372)): 1.1%
Hospitalization ([2]; 325 mg aspirin (N = 372)): 57 no of subjects
Myocardial Infarction ([2]; 325 mg aspirin (N = 372)): 4 no of subjects
Non-Colorectal Cancer ([2]; 325 mg aspirin (N = 372)): 9 no of subjects
Stroke ([2]; 325 mg aspirin (N = 372)): 5 no of subjects
Serious Bleeding, Gastrointestinal ([2]; 325 mg aspirin (N = 372)): 4 no of subjects
Serious Bleeding, Genitourinary ([2]; 325 mg aspirin (N = 372)): 2 no of subjects
Hospitalization, cancer and myocardial infarction, occurrence ([2]; aspirin groups versus placebo, differences compatible with chance): somewhat more frequently
patients diagnosed with a stroke (all non-fatal) ([2]; both aspirin groups together, none on placebo): Seven

Source: US20050119238A1, “Compositions and methods for preventing sporadic neoplasia in colon” (priority 2002, published 2005)
